The subject of experiment [1] is carrageenin-induced paw edema in rats. Description: Systemic anti-inflammatory action on carrageenin-induced paw edema in rats. The class given is in vivo, male Charles Foster rats. The following applies: decrease in paw volume, 3 and 6 hours after carrageenin, from dose/response curve. The procedure: Male Charles Foster rats (120-150 g) were fasted for 18 hours, with water ad libitum. The test compound dissolved in distilled water was administered orally. The control group received distilled water. 0/05 ml of 0.5% carrageenin suspension was injected subcutaneously into the plantar region of the left hind paw. Using a Maclab differential volume meter, the paw volume was determined before the carrageenin injection and 3 and 6 hours after the injection. The percentage decrease in paw volume was calculated by the following equation: [formula] The ED50 value was calculated from the dose/response curve. Six animals were used for each group. The results with representative compounds according to the invention and their salts are listed in Table 4, the substituents relating to the following formula Ia: [drawing 11]

Experiment [2] relates to reverse passive Arthus reaction (RPA) in rats. Description: Reverse passive Arthus reaction (RPA) in rats. The class given is in vivo, Charles Foster rats of both sexes. The following applies: one hour before RPA, edema vs untreated control; for inhibition in vivo at 1.25 mg/kg: dose 1.25 mg/kg p.o.; for inhibition in vivo at 2.5 mg/kg: dose 2.5 mg/kg p.o.; for inhibition in vivo at 5 mg/kg: dose 5.0 mg/kg p.o.; for inhibition in vivo at 10 mg/kg: dose 10.0 mg/kg p.o. The procedure:
Charles Foster rats of both sexes, weighing 150-180 g, were sorted into groups of six animals each. 24 hours before the initiation of the RPA, the rats were shaved from the mid-dorsal region and fasted overnight. The test compounds were administered orally one hour before inducing the Arthus reaction. The RPA reaction was induced by intradermal injection of 0.1 ml of appropriately diluted rabbit anti-BSA serum. Immediately after the intradermal exposure, each rat received 0.5 ml of 0.4% bovine serum albumin intraveneously. Four hours after the intradermal challenge, each group of animals was killed by cervical dislocation. The full thickness of the skin was removed from the back of each animal, and a 12 mm diameter disk was punched out with a metal punch from the site of the antiserum injection. The wet weight of each skin site was determined as soon as possible. The edema caused by the RPA was measured as the difference (expressed in mg) between the wet weight of the site injected with antibody and that injected with normal rabbit serum. The results are expressed as the percentage inhibition or potentiation of the edema by the compound as compared with the edema induced in the untreated control animals.

[3] abbreviates: Rattus norvegicus, po, read-out: ED50.
Where [4] appears, read: Rattus norvegicus, po, 4 h, dose 20.0 mg/kg p.o.

Structures can show the parent of a compound that is named as a salt. Where two headings read alike, the source gives them in different places.

A word on the ED50: it is the midpoint of the dose-response relation. The inhibition in vivo is how much of the control response was suppressed. Regarding `CCc1cc(=O)c2c(O)cc(O)c(C3CCN(C)CC3O)c2o1` (mixture of isomers) [(±) C2 H5 H CH3 HCl.1.5 H2 O, cis-5,7-Dihydroxy-2-ethyl-8-[4'-(3'-hydroxy-1'-methyl)-piperidinyl]-4H-1-benzopyran-4-one hydrochloride], in experiment [1] (setting [3]), the ED50 was 10.5 mg/kg. In addition, in experiment [2] (Rattus norvegicus, po, 4 h), the inhibition in vivo at 1.25 mg/kg came to 16%, the inhibition in vivo at 2.5 mg/kg was 34.3%, the inhibition in vivo at 5 mg/kg turned out to be 41.6% and the inhibition in vivo at 10 mg/kg came out at 43.6%. Moreover, in experiment [2] (setting [4]), the inhibition in vivo at 20 mg/kg came out at 77.1%.

Consider `CCCc1cc(=O)c2c(O)cc(O)c(C3CCN(C)CC3O)c2o1` (mixture of isomers) [(±) n-C3 H7 H CH3 HCl.H2 O, cis-5,7-Dihydroxy-2-n-propyl-8-[4'-(3'-hydroxy-1'-methyl)-piperidinyl]-4H-1-benzopyran-4-one hydrochloride], for which, in experiment [1] (setting [3]), the ED50 was 6.8 mg/kg. For the same molecule, in experiment [2] (Rattus norvegicus, po, 4 h), the inhibition in vivo at 1.25 mg/kg stood at 26%, the inhibition in vivo at 2.5 mg/kg was 32%, the inhibition in vivo at 5 mg/kg worked out at 44% and the inhibition in vivo at 10 mg/kg came to 55%. In addition, the inhibition in vivo at 20 mg/kg in experiment [2] (setting [4]) came out at 65%.

`CN1CC[C@H](c2c(O)cc(O)c3c(=O)cc(-c4ccc(N)cc4)oc23)[C@H](O)C1` (racemic) [(±) 4-Aminophenyl H H 2HCl, 2 H2 O, cis-(±)-2-(4-aminophenyl)-5,7-dihydroxy-8-[4'-(3'-hydroxy-1'-methyl)-piperidinyl]-4H-1-benzopyran-4-one] registered an ED50 in experiment [1] (p.o.) of 7.4 mg/kg.

As for `CN1CC[C@H](c2c(O)cc(O)c3c(=O)cc(-c4ccc(Cl)cc4)oc23)[C@H](O)C1` (racemic) [(±) 4-chlorophenyl H H HCl, 1.5 H2 O, cis-(±)-2-(4-chlorophenyl)-5,7-dihydroxy-8-[4'-(3'-hydroxy-1'-methyl)-piperidinyl]-4H-1-benzopyran-4-one], the ED50 in experiment [1] (p.o.) came out at 7.0 mg/kg.

For `CN1CC[C@H](c2c(O)cc(O)c3c(=O)cc(-c4ccccn4)oc23)[C@H](O)C1` (relative stereo) [(±) 2-Pyridyl H CH3 HCl.1.5 H2 O, cis-(±)-5,7-dihydroxy-2-(2-pyridyl)-8-[4'-(3'-hydroxy-1'-methyl)-piperidinyl]-4H-1-benzopyran-4-one], the ED50 in experiment [1] (setting [3]) worked out at 5.7 mg/kg. In addition, in experiment [2] (Rattus norvegicus, po, 4 h), the inhibition in vivo at 1.25 mg/kg turned out to be 0%, the inhibition in vivo at 2.5 mg/kg came to 12%, the inhibition in vivo at 5 mg/kg is 43% and the inhibition in vivo at 10 mg/kg turned out to be 90%. Further, the inhibition in vivo at 20 mg/kg in experiment [2] (setting [4]) worked out at 90%.

On to `Cc1cc(=O)c2c(O)cc(O)c([C@H]3CCN(C)C[C@H]3O)c2o1` (relative stereo) [(±) CH3 H CH3 HCl, cis-5,7-Dihydroxy-2-methyl-8-[4'-(3'-hydroxy-1'-methyl)-piperidinyl]-4H-1-benzopyran-4-one hydrochloride], for which the ED50 in experiment [1] (setting [3]) amounted to 12.5 mg/kg. In experiment [2] (Rattus norvegicus, po, 4 h), the inhibition in vivo at 1.25 mg/kg was 28.8%, the inhibition in vivo at 2.5 mg/kg turned out to be 31.8%, the inhibition in vivo at 5 mg/kg came out at 29.8% and the inhibition in vivo at 10 mg/kg was 35.8%. Also, the inhibition in vivo at 20 mg/kg in experiment [2] (setting [4]) worked out at 39.2%.

`CN1CC[C@H](c2c(O)cc(O)c3c(=O)cc(-c4ccccc4)oc23)[C@H](O)C1` (relative stereo) [(±) Phenyl H CH3 HCl.2H2 O, cis-(±)-5,7-dihydroxy-2-phenyl-8-[4'-(3'-hydroxy-1'-methyl)-piperidinyl]-4H-1-benzopyran-4-one]: the ED50 in experiment [1] (setting [3]) came out at 5.7 mg/kg. Further, in experiment [2] (Rattus norvegicus, po, 4 h), the inhibition in vivo at 1.25 mg/kg came to 57.5%, the inhibition in vivo at 2.5 mg/kg was found to be 55.6%, the inhibition in vivo at 5 mg/kg was 68.1% and the inhibition in vivo at 10 mg/kg turned out to be 90.6%. In experiment [2] (setting [4]), the inhibition in vivo at 20 mg/kg is 95.7%.

Take `CN1CC[C@H](c2c(O)cc(O)c3c(=O)cc(-c4ccccc4Cl)oc23)[C@H](O)C1` (relative stereo) [(±) o-Chlorophenyl H CH3 HCl.H2 O, cis-(±)-2-(2-chlorophenyl)-5,7-dihydroxy-8-[4'-3'-hydroxy-1'-methyl)-piperidinyl]-4H-benzopyran-4-one]: the ED50 in experiment [1] (setting [3]) was found to be 2.7 mg/kg. In addition, the inhibition in vivo at 1 mg/kg in experiment [2] (Rattus norvegicus, po, 4 h, dose 1.0 mg/kg p.o.) is 37%. Also, the inhibition in vivo at 2 mg/kg in experiment [2] (Rattus norvegicus, po, 4 h, dose 2.0 mg/kg p.o.) stood at 60%. Further, the inhibition in vivo at 4 mg/kg in experiment [2] (Rattus norvegicus, po, 4 h, dose 4.0 mg/kg p.o.) was 80%.

Take `CN1CC[C@H](c2c(O)cc(O)c3c(=O)cc(-c4ccccc4F)oc23)[C@H](O)C1` (relative stereo) [(±) o-Fluorophenyl H CH3 HCl.2H2 O, cis-(±)-5,7-dihydroxyl-2-(2-fluorophenyl)-8-[4'-(3'-hydroxy-1'-methyl)-piperidinyl]-4H-1-benzopyran-4-one]: the ED50 in experiment [1] (setting [3]) worked out at 7.6 mg/kg. Moreover, in experiment [2] (Rattus norvegicus, po, 4 h), the inhibition in vivo at 1.25 mg/kg worked out at 0%, the inhibition in vivo at 2.5 mg/kg came to 11.5% and the inhibition in vivo at 5 mg/kg came to 52.7%.

Take `CN1CC[C@H](c2c(O)cc(O)c3c(=O)cc(-c4ccc(F)cc4)oc23)[C@H](O)C1` (relative stereo) [(±) p-Fluorophenyl H CH3 HCl.H2 O, cis-(±)-5,7-dihydroxy-2-(4-fluorophenyl)-8-[4'-(3'-hydroxy-1'-methyl)-piperidinyl]-4H-1-benzopyran-4-one]: the ED50 in experiment [1] (setting [3]) came to 7.4 mg/kg. In addition, in experiment [2] (Rattus norvegicus, po, 4 h), the inhibition in vivo at 1.25 mg/kg came to 24.4%, the inhibition in vivo at 2.5 mg/kg was determined as 37.4%, the inhibition in vivo at 5 mg/kg worked out at 61.5% and the inhibition in vivo at 10 mg/kg stood at 90%. Besides, the inhibition in vivo at 20 mg/kg in experiment [2] (setting [4]) is 86.2%.

For `CN1CC[C@H](c2c(O)cc(O)c3c(=O)cc(-c4ccc(Cl)cc4Cl)oc23)[C@H](O)C1` (relative stereo) [cis-(±)-2-(2,4-dichlorophenyl)-5,7-dihydroxy-8-[4'-(3'-hydroxy-1'-methyl)-piperidinyl]-4H-1-benzopyran-4-one], in experiment [1] (setting [3]), the ED50 worked out at 5.7 mg/kg. Besides, in experiment [2] (Rattus norvegicus, po, 4 h), the inhibition in vivo at 1.25 mg/kg was found to be 0%, the inhibition in vivo at 2.5 mg/kg is 41.7%, the inhibition in vivo at 5 mg/kg was found to be 57.2% and the inhibition in vivo at 10 mg/kg is 49.5%. In addition, the inhibition in vivo at 20 mg/kg in experiment [2] (setting [4]) was found to be 76.1%.

In general, % inhibition refers to how much of the control response was suppressed. `Cc1cc(=O)c2c(O)cc(O)c([C@H]3CCN(C)C[C@H]3O)c2o1` (single isomer, unassigned) [(+) CH3 H CH3 HCl, (+)-cis-5,7-Dihydroxy-2-methyl-8-[4'-(3'-hydroxy-1'-methyl)-piperidinyl]-4H-1-benzopyran-4-one hydrochloride]: in experiment [1] (setting [3]), the ED50 was determined as 9.4 mg/kg. For the same molecule, in experiment [2] (Rattus norvegicus, po, 4 h), the inhibition in vivo at 1.25 mg/kg was found to be 40.5%, the inhibition in vivo at 2.5 mg/kg is 48.8%, the inhibition in vivo at 5 mg/kg was found to be 57.1% and the inhibition in vivo at 10 mg/kg came to 50.4%. Further, in experiment [2] (dose 20.0 mg/kg p.o., hydrochloride, 20 mg/kg), the “% inhibition” value was 43.24%.

Take `CN1CC[C@H](c2c(O)cc(O)c3c(=O)cc(-c4ccccc4Cl)oc23)[C@H](O)C1` (single isomer, unassigned) [(-) 2-Chlorophenyl H CH3 HCl.1,5 H2 O, cis-(-)-2-(2-chlorophenyl)-5,7-dihydroxy-8-[4'-(3'-hydroxy-1'-methyl)-piperidinyl]-4H-1-benzopyran-4-one]: the ED50 in experiment [1] (setting [3]) came out at 2.4 mg/kg. Moreover, in experiment [2] (Rattus norvegicus, po, 4 h), the inhibition in vivo at 1.25 mg/kg was determined as 34%, the inhibition in vivo at 2.5 mg/kg was 48.8%, the inhibition in vivo at 5 mg/kg was determined as 70% and the inhibition in vivo at 10 mg/kg is 98.8%.

(Values after US4900727A, “4H-1-benzopyran-4-one compounds which have anti-inflamatory or immunodulating action” (Hoechst Aktiengesellschaft, priority 1986, dated 1990).)
